Where two headings read alike, the source gives them in different places.
Experiments:
Cryptosporidium parvum = test: qRT-PCR assay of the growth of C. parvum in vitro in HCT-8 host cells (primary and secondary screening, EC50); format: cell-based; conditions: for Inhibition (%): primary screening at 10 uM; for % Inhibition (3.3 uM): secondary screening at 3.3 uM
[1] = primary screening at 10 uM, from Hs18S ΔCT
[2] = primary screening at 10 uM, treated vs control

Structure (SMILES)	Cytotoxicity (%) (HCT-8 host cells (Hs18S); [1])	Hs18S ΔCT (HCT-8 host cells (Hs18S); [2])	Inhibition (%) (Cryptosporidium parvum)	% Inhibition (3.3 uM) (Cryptosporidium parvum) [%]	Hs18S ΔCT (HCT-8 host cells (Hs18S))	Cytotoxicity (%) (HCT-8 host cells (Hs18S); 10 µM)
CC(C(=O)O)[C@H]1CCC2C3CC=C4C[C@@H](O)CC[C@]4(C)C3CC[C@@]21C (stereo partly drawn) [3beta-HYDROXY-23,24-BISNORCHOL-5-ENIC ACID]	-63.2	-0.71	-20.26	–	–	–
CC(=O)O[C@@H]1CC2C(C)(CC[C@H](O)C2(C)C)C2CC[C@]3(C)C(=CC(=O)O[C@H]3c3ccoc3)C21C (stereo partly drawn) [3beta-HYDROXYDEOXODIHYDRODEOXYGEDUNIN]	-19.7	-0.26	77.26	-21	–	–
C[C@@H]1CC[C@@]2(OC1)O[C@H]1C[C@H]3[C@@H]4CC[C@H]5C[C@@H](O)CC[C@]5(C)C4=CC[C@]3(C)[C@H]1[C@@H]2C [3beta-HYDROXYISOALLOSPIROST-9(11)-ENE]	-12.6	-0.17	6.79	–	–	–
COc1cc(O)c(C(C)=O)c(O)c1 [4-O-METHYLPHLORACETOPHENONE]	10.4	0.16	2.57	–	–	–
COc1ccc(-c2cc(=O)c3c(O)cc(OC)c(OC)c3o2)c(OC)c1 [5-HYDROXY-2',4',7,8-TETRAMETHOXYFLAVONE]	13.2	0.20	89.23	-83	–	–
C[C@]12CCC(=O)C[C@@H]1CC[C@@H]1[C@@H]2CC[C@]2(C)C(=O)CC[C@@H]12 [5alpha-ANDROSTAN-3,17-DIONE]	-0.1	0.00	-13.88	–	–	–
CC(C)CCC[C@@H](C)[C@H]1CC[C@H]2[C@@H]3CC[C@H]4C[C@@H](O)CC[C@]4(C)[C@H]3CC[C@]12C [5alpha-CHOLESTANOL]	-2.4	-0.03	-23.23	–	–	–
O=c1cc(-c2ccc(O)cc2)oc2ccc(O)cc12 [6,4'-DIHYDROXYFLAVONE]	17.9	0.28	28.18	–	–	–
COc1cc2occ(-c3ccc(OC)c(OC)c3OC)c(=O)c2cc1OC [6,7,2',3',4'-PENTAMETHOXYISOFLAVONE]	-30.1	-0.38	39.55	–	–	–
O=c1cc(-c2ccccc2O)oc2cc(O)ccc12 [7,2'-DIHYDROXYFLAVONE]	12.6	0.19	-16.96	–	–	–
COc1ccc(-c2coc3cc(OC)ccc3c2=O)cc1 [7,4'-DIMETHOXYISOFLAVONE]	3.0	0.04	1.31	–	–	–
CC(=O)OCC1=C(C(=O)O)N2C(=O)[C@@H](N)[C@H]2SC1 [7-AMINOCEPHALOSPORANIC ACID]	12.1	0.19	-11.44	–	–	–
CC(=O)O[C@H]1C[C@@H](OC(C)=O)C(C)(C)C2CC(=O)[C@]3(C)C(CC[C@@]4(C)[C@H](c5ccoc5)OC(=O)[C@H]5O[C@]543)[C@]21C (stereo partly drawn) [7-DEACETOXY-7-OXOKHIVORIN]	13.5	0.21	40.16	–	–	–
CC(=O)O[C@@H]1C[C@]2(C)[C@@H](C(C)=O)CC[C@H]2[C@@H]2CCC3=CC(=O)CC[C@]3(C)[C@H]21 [11a-ACETOXYPROGESTERONE]	-16.6	-0.22	10.83	–	–	–
CC(=O)Oc1ccc2c(C)cc(=O)oc2c1 [ACETYL HYMETOCHROME]	-4.5	-0.06	-35.81	–	–	–
CNCC(=O)c1ccc(O)c(O)c1.Cl [ADRENOLONE HYDROCHLORIDE]	-16.6	-0.22	26.43	–	–	–
CCCCCCCCCCCCCCCCC(C(=O)O)C(O)(CC(=O)O)C(=O)O (stereo not drawn) [AGARIC ACID]	18.9	0.30	-4.50	–	–	–
O=C(O)CCCCCCCC(O)C(O)CCCCCCO (stereo not drawn) [ALEURETIC ACID]	–	–	36.82	–	0.24	15.2
C[C@]12C=CC(=O)C=C1CC[C@@H]1[C@@H]2CC[C@]2(C)C(=O)CC[C@@H]12 [ANDROSTA-1,4-DIEN-3,17-DIONE]	0.7	0.01	15.07	–	–	–

Structure (SMILES)	Cytotoxicity (%) (HCT-8 host cells (Hs18S); [1])	Hs18S ΔCT (HCT-8 host cells (Hs18S); [2])	Inhibition (%) (Cryptosporidium parvum)	% Inhibition (3.3 uM) (Cryptosporidium parvum) [%]	Hs18S ΔCT (HCT-8 host cells (Hs18S))	Cytotoxicity (%) (HCT-8 host cells (Hs18S); 10 µM)
Br.CN1[C@H]2C[C@H](OC(=O)[C@H](CO)c3ccccc3)C[C@@H]1[C@@H](O)C2 [ANISODAMINE HYDROBROMIDE]	-32.6	-0.41	5.51	–	–	–
COc1cc2c(cc1OC)-c1c(oc3cc(O)cc(O)c3c1=O)CO2 [APOTOXICAROL]	10.7	0.16	1.64	–	–	–
CN[C@@H]1[C@@H](O[C@H]2O[C@H](CO)[C@@H](N)[C@H](O)[C@H]2O)O[C@H]2C[C@@H](N)[C@@H](O[C@H]3[C@H](O)[C@@H](O)[C@H](N)C[C@@H]3N)O[C@@H]2[C@@H]1O.O=S(=O)(O)O [APRAMYCIN SULFATE]	-3.1	-0.04	42.68	–	–	–
OC[C@@H](O)C(O)[C@H](O)CO [ARABITOL]	-2.6	-0.04	8.73	–	–	–
CC(C)(O)[C@@H]1CC[C@](C)([C@H]2[C@@H](O)C[C@@]3(C)[C@@H]4C[C@H](O[C@@H]5O[C@H](CO)[C@@H](O)[C@H](O)[C@H]5O)[C@H]5C(C)(C)[C@@H](O[C@@H]6OC[C@@H](O)[C@H](O)[C@H]6O)CC[C@@]56C[C@@]46CC[C@]23C)O1 [ASTRAGALOSIDE IV]	-14.1	-0.19	-18.98	–	–	–
C=CCCCCCCCCCCCC(O)CC(O)COC(C)=O (stereo not drawn) [AVOCADENE ACETATE]	-38.4	-0.47	-0.39	–	–	–
C=CCCCCCCCCCCCc1ccco1 [AVOCADENOFURAN]	-32.5	-0.41	-21.47	–	–	–
COc1ccc(-c2coc3cc(O)cc(O)c3c2=O)cc1 [BIOCHANIN A]	6.9	0.10	14.14	–	–	–
O=C(O)CC[N+](=O)[O-] [BOVINOCIDIN]	-25.1	-0.32	41.04	–	–	–
CC1=CC2C(C(C)C)CCC(C)(O)C2CC1 (stereo not drawn) [CADIN-4-EN-10-OL]	-34.1	-0.42	-28.21	–	–	–
CC1=C(/C=C/C(C)=C/C=C/C(C)=C/C=C/C=C(C)/C=C/C=C(C)/C=C/C2=C(C)C(=O)CCC2(C)C)C(C)(C)CCC1=O [CANTHAXANTHIN, CANTHAXANTHIN (euglenanone)]	–	–	52.72	–	–	-19.8%
C[N+](C)(C)CC(O)CC(=O)O.[Cl-] (stereo not drawn) [CARNITINE (dl) HYDROCHLORIDE]	-73.4	-0.79	-3.41	–	–	–
OC[C@H]1O[C@@H](O[C@H]2[C@H](O)[C@@H](O)[C@H](O)O[C@@H]2CO)[C@H](O)[C@@H](O)[C@@H]1O [CELLOBIOSE (D[+])]	–	0.91	-5.56	–	–	–
CC(C)CCC[C@@H](C)[C@H]1CC[C@H]2[C@@H]3CC[C@H]4CCCC[C@]4(C)[C@H]3CC[C@]12C [CHOLESTANE]	12.2	0.19	13.94	–	–	–
CC(=O)O[C@H]1CC[C@@]2(C)C(=CC[C@H]3[C@@H]4CC[C@H]([C@H](C)CCCC(C)C)[C@@]4(C)CC[C@@H]32)C1 [CHOLESTERYL ACETATE]	-5.8	-0.08	-22.86	–	–	–
CC(C)CCC[C@@H](C)[C@H]1CC[C@H]2[C@@H]3CC=C4C[C@@H](OC(=O)c5ccccc5)CC[C@]4(C)[C@H]3CC[C@]12C [CHOLESTERYL BENZOATE]	5.3	0.08	-14.05	–	–	–
C[N+](C)(C)CCO.[Cl-] [CHOLINE CHLORIDE]	–	–	20.98	–	0.33	20.6
C[C@H](CC(=O)[C@@H]1OC1(C)C)[C@H]1C(=O)C[C@@]2(C)C3=CC[C@H]4C(C)(C)[C@@H](O[C@@H]5OC[C@@H](O)[C@H](O)[C@H]5O)CC[C@@]45C[C@@]35[C@@H](O)C[C@]12C [CIMICIFUGOSIDE H1]	69.4	1.71	58.34	–	–	–
COc1cc2cc3c4cc(OC)c(OC)cc4cc[n+]3c(C)c2cc1OC.[Cl-] [CORALYNE CHLORIDE]	-23.6	-0.31	-5.22	–	–	–

Reference: publication PMC6736568, “Discovery of Novel Anti-cryptosporidial Activities From Natural Products by in vitro High-Throughput Phenotypic Screening” (Frontiers in Microbiology, 2019)
